Results as given in PubChem BioAssay (NCI).
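Each compound was tested at five concentrations against cells in 96-well plates for 48 hours. GI50: concentration for 50% inhibition of growth. The concentration for full growth arrest is given as TGI.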

Legend:
Experiment in all cases: NCI-60 cell line screen, 48 h
[1] = system: A498 renal
[2] = system: IGROV1 ovarian
[3] = system: MCF7 breast
[4] = system: HOP-62 NSCLC
[5] = system: OVCAR-3 ovarian
[6] = system: HCT-15 colon
[7] = system: MDA-MB-231 breast
[8] = system: SR leukemia
[9] = system: CAKI-1 renal
[10] = system: HCT-116 colon

| SMILES | GI50 [1] [µM] | TGI [1] [µM] | GI50 [2] [µM] | TGI [2] [µM] | GI50 [3] [µM] | TGI [3] [µM] | GI50 [4] [µM] | TGI [4] [µM] | GI50 [5] [µM] | TGI [5] [µM] | GI50 [6] [µM] | TGI [6] [µM] | GI50 [7] [µM] | TGI [7] [µM] | GI50 [8] [µM] | TGI [8] [µM] | GI50 [9] [µM] | TGI [9] [µM] | GI50 [10] [µM] | TGI [10] [µM] |
| --- | --- | --- | --- | --- | --- | --- | --- | --- | --- | --- | --- | --- | --- | --- | --- | --- | --- | --- | --- | --- |
| Cc1ccc(-n2nnnc2-c2cnc(N3CCOCC3)nc2-c2cccc(C(F)(F)F)c2)cc1 | 2.71 | 17.1 | 1.63 | > 10.7 | 1.32 | > 32.8 | 1.44 | 4.9 | 1.05 | 2.81 | 3 | 8.57 | 3.24 | > 12.2 | 1.13 | 3.17 | 1.45 | 13.2 | 1.35 | 5.08 |
| COC1CC(N)C(O)C(C)O1 (stereo not given) | – | > 100 | – | > 100 | – | > 100 | – | > 100 | – | > 100 | – | > 100 | – | > 100 | – | > 100 | – | > 100 | – | > 100 |
| Cn1cc(C2=C(Nc3ccccc3)C(=O)NC2=O)c2ccccc21 | > 25 | > 25 | > 25 | > 25 | > 25 | > 25 | > 25 | > 25 | > 25 | > 25 | 24.8 | > 25 | > 25 | > 25 | > 25 | > 25 | > 25 | > 25 | 16.4 | > 25 |
| CCSC[C@@H]1C[C@](O)(c2ccc(F)cc2)[C@@H](c2ccc(F)cc2)O1 | 19 | 33.1 | 14.5 | 32.8 | 17.1 | 34.8 | 18.2 | 33.4 | 19.2 | 37.1 | 17.4 | 33 | 15.3 | 30.1 | 12.9 | 30 | 18.2 | 39.7 | 12.1 | 29.2 |
| CN(C)c1ccc(/C=N/S(=O)(=O)c2ccc(-n3c(-c4ccccc4)nc4c(Br)cc(Br)cc4c3=O)cc2)cc1 | 32.5 | > 93.7 | 25.6 | > 100 | 28.8 | > 78 | 47.7 | > 100 | 34.2 | > 100 | 51.1 | > 100 | 44 | > 100 | 1 | 14.9 | 47.5 | > 100 | 33.2 | > 100 |
| CC1(C)O[C@@H]2C[C@H]3[C@@H]4C[C@H](F)C5=CC(=O)C=C[C@]5(C)[C@@]4(F)[C@@H](O)C[C@]3(C)[C@]2(C(=O)CO)O1 | – | > 100 | – | > 100 | – | > 100 | – | > 100 | – | > 100 | – | > 100 | – | > 100 | – | > 100 | – | > 100 | – | > 100 |
| Cc1cccc2c3c(sc12)C(c1ccc(F)cc1)C(C#N)=C(N)O3 (stereo not given) | 0.0192 | 0.318 | 0.0744 | 11.2 | 0.0332 | 11.1 | 0.127 | 12.9 | 0.0401 | 1.85 | 0.0447 | 10.7 | 0.346 | 8.4 | 0.0462 | 20.2 | 0.0466 | 12.5 | 0.052 | 3.43 |
